One block for each compound: values may come before it.
Assays:
Type in all cases: binding
OXER1 = biological target: T1, OXER1 (Homo sapiens, UniProt Q8TDS5); test: NanoBRET screen HiBiT-OXER1 in HEK293
T1 construct: purchased Promega (in-house HiBiT-GPCR construct library, NanoBRET)
Method: (§1) Each tracer candidate was screened across the entire library of HiBiT-GPCR constructs using NanoBRET as the detection modality. As depicted in Figure 4A, the specificity of interactions was evaluated through decrease in BRET due to competitive displacement of a bound tracer by excess parental compound. Each tracer was analyzed for binding to each HiBiT-GPCR fusion in the absence and in the presence of competing parental compound. Briefly, HEK293 cells were transfected with HiBiT-GPCR constructs diluted into promoterless DNA to reduce expression and maximize translocation to the cell surface. Each tracer candidate was then screened at concentrations of 1 μM and 0.1 μM across cells expressing these fusions. Cells were treated for 1.5 h with tracer either alone or in the presence of 20 μM competing parental compound (i.e., control). BRET was measured upon addition of purified LgBiT and subsequent complementation with HiBiT genetically fused to a GPCR. The specificity of interactions was assessed through a decrease in BRET signal due to competitive displacement of the bound tracer. To further gauge the robustness of these interactions, the fold response over the control (i.e., BRETtracer/BRETcontrol) was calculated. We chose a 1.5-fold response, which translates to ≥7-fold signal over noise as the minimal threshold required to score an interaction as positive. […]. Below we highlight the screening results obtained for our exemplary fluorescent tracers based on Clozapine, Amitriptyline and AZD1283.
(§2) HiBiT-GPCR DNA constructs were diluted in 10 mM Tris pH 8 to a final concentration of 0.01 μg/μL, arrayed in 96-well plates and stored at −20 °C. For transfection, HEK293 cells were suspended in Opti-MEM (without phenol red) supplemented with 2% fetal bovine serum (Seradigm) and 100 units/mL penicillin–streptomycin (Gibco) at a final concentration of 220,000 cells/mL and dispensed into white 96-well plates at 90 μL/well. Subsequent transfections and screens were carried using an Agilent Bravo Automated Liquid Handling Platform. First, the 96-well HiBiT DNA arrays were diluted 25-fold in Opti-MEM (without serum or phenol red) to a final concentration of 0.0004 μg/μL and 20 μL of the diluted DNAs were transferred into new 96-well plates. Next, promoterless carrier DNA (1 μg/μL) was diluted 25-fold (0.04 μg/μL) and then dispensed into the diluted arrays at 20 μL/well. Following brief mixing, Viafect transfection reagent (Promega) diluted 16-fold into Opti-MEM was dispensed into the plates at 40 μL/well. After mixing by pipetting, plates were incubated for 10 min on the pipetting station deck. The DNA-transfection reagent complexes were then added to plates containing cells. To facilitate the screen, 10 μL of DNA-transfection reagent complexes were added in duplicates to the top 4 and bottom 4 rows, resulting in two identical 48-well arrays per plate. Plates with transfected cells were incubated for 18–20 h at 37 °C/5% CO2. A screen of each tracer across the entire library using two different concentrations requires duplicate plates of transfected cells. Depending on the number of tracers being screened, transfections can be scaled up using the same ratios. The next day, for each tracer, four 20× screening solutions in tracer dilution buffer (Promega) were prepared: two duplicates at final concentration of 20 μM and two duplicates at a final concentration of 2 μM. A competing unmodified compound was added to one of each duplicate at a final concentration of 400 μM. The four resulting solutions were diluted 4-fold in Opti-MEM without serum or phenol red to generate 5× solutions (5 µM and 0.5 µM tracer +/− 100 μM competing compound). To screen the library, a BioTek MultiFlo FX liquid dispenser was used to dispense 22.5 µL of tracer solution to the top 4 rows and 22.5 µL tracer + competing compound solution to the 4 bottom rows. Plates were briefly mixed on an orbital shaker and incubated for 1.5 h at room temperature. […]

FZD7 = biological target: T2, FZD7 (Homo sapiens, UniProt O75084); test: NanoBRET screen HiBiT-FZD7 in HEK293
T2 construct: purchased Promega (in-house HiBiT-GPCR construct library, NanoBRET)
Method: as §1, §2

CX3CR1 = biological target: T3, CX3CR1 (Homo sapiens, UniProt P49238); test: NanoBRET screen HiBiT-CX3CR1 in HEK293
T3 construct: purchased Promega (in-house HiBiT-GPCR construct library, NanoBRET)
T3 sequence (P49238 1-355): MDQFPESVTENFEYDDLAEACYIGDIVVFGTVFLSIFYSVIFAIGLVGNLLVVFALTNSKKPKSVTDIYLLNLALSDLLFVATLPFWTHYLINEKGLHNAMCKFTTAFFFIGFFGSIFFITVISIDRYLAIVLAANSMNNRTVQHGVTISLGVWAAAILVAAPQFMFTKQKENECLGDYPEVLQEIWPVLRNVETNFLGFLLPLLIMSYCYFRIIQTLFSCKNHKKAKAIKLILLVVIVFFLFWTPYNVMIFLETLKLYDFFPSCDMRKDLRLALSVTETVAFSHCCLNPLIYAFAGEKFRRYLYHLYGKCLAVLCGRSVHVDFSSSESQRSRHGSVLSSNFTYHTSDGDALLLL
Method: as §1, §2

T1 sequence (Q8TDS5 whole entry): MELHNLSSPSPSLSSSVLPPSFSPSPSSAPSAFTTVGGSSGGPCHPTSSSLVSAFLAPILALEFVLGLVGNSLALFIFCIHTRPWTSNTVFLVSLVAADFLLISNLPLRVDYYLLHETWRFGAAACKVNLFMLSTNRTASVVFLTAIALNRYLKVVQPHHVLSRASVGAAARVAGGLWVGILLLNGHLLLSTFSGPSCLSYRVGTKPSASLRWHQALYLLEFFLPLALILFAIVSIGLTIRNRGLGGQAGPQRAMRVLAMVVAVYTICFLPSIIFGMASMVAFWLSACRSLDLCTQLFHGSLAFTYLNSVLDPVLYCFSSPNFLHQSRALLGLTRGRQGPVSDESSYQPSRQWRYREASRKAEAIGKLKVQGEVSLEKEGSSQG

SMILES: Cc1cc2c(s1)Nc1ccccc1N=C2N1CCN(CCCNC(=O)CCOCCOCCOCCOCCNC(=O)CCc2ccc3n2[B-](F)(F)[N+]2=C(c4ccc[nH]4)C=CC2=C3)CC1 [Olanzapine-a-2-NB590]
NanoBRET Fold Response (OXER1; OXER1, tracer 0.1μM): 0.96
NanoBRET Fold Response (OXER1; OXER1, tracer 1μM): 1.04
NanoBRET Fold Response (FZD7; FZD7, tracer 0.1μM): 1.03
NanoBRET Fold Response (FZD7; FZD7, tracer 1μM): 0.95
NanoBRET Fold Response (CX3CR1; CX3CR1, tracer 0.1μM): 1.03
NanoBRET Fold Response (CX3CR1; CX3CR1, tracer 1μM): 0.97

SMILES: CN1CCN(C2=Nc3cc(Cl)ccc3Nc3ccc(CNC(=O)CCOCCOCCOCCOCCNC(=O)CCc4ccc5n4[B-](F)(F)[N+]4=C(c6ccc[nH]6)C=CC4=C5)cc32)CC1 [Clozapine-b-2-NB590]
NanoBRET Fold Response (OXER1; OXER1, 0.1μM tracer): 0.97
NanoBRET Fold Response (OXER1; OXER1, 1μM tracer): 0.95
NanoBRET Fold Response (FZD7; FZD7, 0.1μM tracer): 1.01
NanoBRET Fold Response (FZD7; FZD7, 1μM tracer): 0.98
NanoBRET Fold Response (CX3CR1; CX3CR1, 0.1μM tracer): 0.98

NanoBRET Fold Response (OXER1; 0.1μM tracer): 1.39
NanoBRET Fold Response (OXER1; 1μM tracer): 1.06
NanoBRET Fold Response (FZD7; 0.1μM tracer): 1.11
NanoBRET Fold Response (FZD7; 1μM tracer): 1.11
NanoBRET Fold Response (CX3CR1; 0.1μM tracer): 0.93
NanoBRET Fold Response (CX3CR1; 1μM tracer): 1.05
SMILES: COc1ccc2c(n1)c(CCNC(C)=O)cn2CCNC(=O)CCc1ccc2n1[B-](F)(F)[N+]1=C(c3ccc[nH]3)C=CC1=C2 [Azamelatonin-1-NB590]

SMILES: O=C(CCc1ccc2n1[B-](F)(F)[N+]1=C(c3ccc[nH]3)C=CC1=C2)NCc1ccc(C(=O)NCCOCCOCCNCC(O)COc2cccc3ccccc23)cc1 (centres unmarked) [Propranolol-3-NB590]
NanoBRET Fold Response (OXER1; OXER1, 0.1μM): 1.09
NanoBRET Fold Response (OXER1; OXER1, 1μM): 1.00
NanoBRET Fold Response (FZD7; FZD7, 0.1μM): 1.01
NanoBRET Fold Response (FZD7; FZD7, 1μM): 1.04
NanoBRET Fold Response (CX3CR1; CX3CR1, 0.1μM): 1.08
NanoBRET Fold Response (CX3CR1; CX3CR1, 1μM): 1.03

NanoBRET Fold Response (OXER1; OXER1, 0.1μM tracer): 0.95
NanoBRET Fold Response (OXER1; OXER1, 1μM tracer): 1.00
NanoBRET Fold Response (FZD7; FZD7, 0.1μM tracer): 1.00
NanoBRET Fold Response (FZD7; FZD7, 1μM tracer): 0.98
NanoBRET Fold Response (CX3CR1; CX3CR1, 0.1μM tracer): 1.08
NanoBRET Fold Response (CX3CR1; CX3CR1, 1μM tracer): 1.07
SMILES: O=C(CCOCCOCCOCCOCCNC(=O)CCc1ccc2n1[B-](F)(F)[N+]1=C(c3ccc[nH]3)C=CC1=C2)NCCCN1CCN(C2=Nc3cc(Cl)ccc3Nc3ccccc32)CC1 [Clozapine-a-2-NB590]
